In patent US10604476B2, “Fluorinated amide derivatives and their uses as therapeutic agents” (Trillium Therapeutics Inc., priority 2015, dated 2020):

What was measured:
corneal kindled seizures = assay: Corneal kindling mouse model; type: in vivo
From the text: Mice are kindled electrically with 3 sec stimulation, 8 mA, 60 Hz, and corneal electrodes to a criterion of 10 consecutive Stage 5 seizures (facial clonus and head nodding progressing to forelimb clonus, and finally rearing and falling accompanied by a generalized clonic seizure as described by Racine). Stage 5 is generally reached after twice daily stimulation for 8 days. With continued stimulation once a day, animals usually progress to a reproducible Stage 5 after 10-14 additional days. At least 72 hours after the mice have been kindled, the test substance is administered either i.p. or p.o. and, at the previously determined TPE, each animal is given the electrical stimulus indicated above. Following stimulation, the animals are observed for the presence or absence of the rearing and falling criteria of a Stage 5 seizure. Treated animals not displaying a Stage 3, 4, or 5 seizure are considered protected. The dose of the test substance is varied between the limits of 0 and 100% efficacy, and the ED50 and 95% confidence intervals calculated by probit analysis. Mean values and the S.E.M. are calculated for the length of clonus and seizure duration and p values are determined by the Student's t-test.

audiogenic seizure (AGS) = assay: Frings AGS-susceptible mouse model; type: in vivo; conditions: ip, read-out: ED50, block of AGS
From the text: Frings audiogenic seizure (AGS)-susceptible mice model examines the ability of an investigational drug to alter the onset and/or severity of seizures in a genetic mouse model of seizure susceptibility. Mice are genetically susceptible to sound-induced reflex seizures. Their seizure phenotype is characterized by wild running, loss of righting reflex, tonic flexion, and tonic extension in response to high-intensity sound stimulation. […] For example, the prototypical anticonvulsants phenytoin and ethosuximide display widely divergent clinical spectrums in humans, but are both active against sound-induced seizures in mice. Yet, the preclinical utility of this animal model rests in the useful information that can be obtained within a genetically susceptible model of seizures. Further, efficacy in this model provides proof of concept of brain bioavailability following systemic administration. […] At the time of peak effect as determined in the MES test (Test 4 in CF1 mice), individual mice are placed in a round plexiglass jar (diameter, 15 cm; height, 18 cm) and exposed to a sound stimulus of 110 decibels (11 KHz) delivered for 20 sec. […] The severity of a seizure may also be quantitated by assigning a numerical score to the observed response, e.g. no response—0; wild running for <10 sec—1; wild running for >10 sec—2; clonic seizure—3; forelimb extension/hind limb flexion—4; tonic seizure—5.

[1] = system: lithium pilocarpine-induced status epilepticus; assay: Pilocarpine-induced status epilepticus rat model; type: in vivo
Experimental: While most seizures are often short duration events that resolve spontaneously, status epilepticus (SE) events are characterized by continuous epileptic seizures or a series of seizures lasting longer than 30 minutes. Typically, treatment of SE requires emergency room intervention with either diazepam or lorazepam, immediately followed by phenytoin or phenobarbital. However, up to 15% of SE episodes can be refractory to these conventional therapies, thus identifying novel treatments that can be applied in the drug-refractory period, i.e. benzodiazepine-resistant SE, is of critical value to the clinical management of SE. The lithium-pilocarpine model is used to study the effects of a test compound on benzodiazepine-resistant SE. Sprague Dawley rats (n=8 per group; 100-150 g) are injected with lithium chloride (LiCl) solution (127 mg/kg). Animals are then used for the lithium pilocarpine-induced SE test 20-24 hours following LiCl injection. On the day of the test, animals are weighed and then injected with pilocarpine (50 mg/kg; i.p.) before being placed in an observation cage. In the initial convulsive-SE behavioral observation studies, adult rats receive a dose of the investigational compound, which was found in rat MES quantification to produce MMI. […] The ED50 and ED97 in this behavioral assay (30 minute time point) are determined for promising investigational compounds.

mechanical allodynia = assay: Spinal nerve injury (SNI) model, Von Frey test; type: in vivo, rat; conditions: 60 mg/kg i.p.
From the text: The SNI model of neuropathic pain was developed in rats using the procedure described by Decostered and Woolf, Pain 2000, 87: 149-158. Under isoflurane anesthesia, the skin on the lateral surface of the thigh was incised and a section was made directly through the biceps femoris muscle exposing the sciatic nerve and its three terminal branches: the sural, common peroneal and tibial nerves. The common peroneal and the tibial nerves were tight-ligated with 6-0 suture and sectioned distal to the ligation, removing 2-4 mm of the distal nerve stump. Extreme care was taken to avoid any contact with or stretching of the intact sural nerve. Following surgery, hemostasis was confirmed and the muscles were sutured in layers using 4-0 suture and the skin was closed with 4-0 suture and metal clips. Male, Sprague-Dawley rats were used. Testing of compounds was done 21 days post-operatively. After initial basal readings were taken, the test compound or vehicle was administered. The readings were taken again 30, 60 and 180 min after the compound/vehicle administration. Both the control (uninjured) and the SNI paw were tested. The presence of mechanical allodynia was assessed using the Dynamic Plantar Aesthesiometer (Ugo Basile, Italy) which is a modified version of the Von Frey Hair test. […] A single reading was taken per time point. […]

| Structure (SMILES) | Average Seizure (corneal kindled seizures; 35 mg/kg) | N/F, number of animals active over the number tested (corneal kindled seizures; 35 mg/kg) | Average Seizure (corneal kindled seizures; 70 mg/kg) | N/F, number of animals active over the number tested (corneal kindled seizures; 70 mg/kg) | Average Seizure (corneal kindled seizures; 140 mg/kg) | N/F, number of animals active over the number tested (corneal kindled seizures; 140 mg/kg) | Average Seizure (corneal kindled seizures; 300 mg/kg) | N/F, number of animals active over the number tested (corneal kindled seizures; 300 mg/kg) | ED50 (corneal kindled seizures; Mus musculus, corneal kindled mice, read-out: ED50, reduction of seizure score (seizure severity)) [mg/kg] | ED50 (audiogenic seizure (AGS)) [mg/kg] | effect in chemically induced SE, administered 30 minutes after the appearance of seizures ([1]; 130 mg/kg) | effect in chemically induced SE, administered at the time of the chemical insult ([1]; time zero, 65 mg/kg) | mechanical allodynia in the denervated paw, Von Frey test (mechanical allodynia) |
| --- | --- | --- | --- | --- | --- | --- | --- | --- | --- | --- | --- | --- | --- |
| C[C@@H](Oc1cc(Cl)cc(C(F)(F)F)c1)C(N)=O [I(D), (2R)-2-[3-chloro-5-(trifluoromethyl)-phenoxy]propanamide] | 5 | 0/8 | 4.6 | 1/8 | 2.4 | 5/8 | 0.8 | 8/8 | 70.4 ± 1 | 28.9 ± 3.08 | effective | effective | – |
| NC(=O)COc1cc(C(F)(F)F)cc(C(F)(F)F)c1 [I(F), 2-[3,5 bis(trifluoromethyl)-phenoxy]acetamide;] | – | – | – | – | – | – | – | – | – | – | – | – | effective |
